According to PubChem BioAssay (NCI):
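GI50: concentration for 50% inhibition of growth. TGI: concentration producing complete growth inhibition.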

Key:
Test in all cases: NCI-60 cell line screen, 384-well format
OVCAR-5 ovarian = tested on: OVCAR-5 ovarian
SN12C renal = tested on: SN12C renal
A498 renal = tested on: A498 renal
RXF 393 renal = tested on: RXF 393 renal
LOX IMVI melanoma = tested on: LOX IMVI melanoma
MDA-MB-435 melanoma = tested on: MDA-MB-435 melanoma
OVCAR-3 ovarian = tested on: OVCAR-3 ovarian
K-562 leukemia = tested on: K-562 leukemia
NCI-H460 NSCLC = tested on: NCI-H460 NSCLC
HCT-116 colon = tested on: HCT-116 colon
HOP-92 NSCLC = tested on: HOP-92 NSCLC
BT-549 breast = tested on: BT-549 breast
786-0 renal = tested on: 786-0 renal
MDA-MB-231 breast = tested on: MDA-MB-231 breast
NCI-H226 lung = tested on: NCI-H226 lung
MOLT-4 leukemia = tested on: MOLT-4 leukemia
RPMI-8226 leukemia = tested on: RPMI-8226 leukemia
SK-MEL-2 melanoma = tested on: SK-MEL-2 melanoma
SF-268 CNS = tested on: SF-268 CNS
DU-145 prostate = tested on: DU-145 prostate
SW-620 colon = tested on: SW-620 colon
CAKI-1 renal = tested on: CAKI-1 renal
SK-MEL-28 melanoma = tested on: SK-MEL-28 melanoma
IGROV1 ovarian = tested on: IGROV1 ovarian
HL-60(TB) leukemia = tested on: HL-60(TB) leukemia
HT29 colon = tested on: HT29 colon
TK-10 renal = tested on: TK-10 renal
CCRF-CEM leukemia = tested on: CCRF-CEM leukemia
T-47D breast = tested on: T-47D breast
NCI-H522 lung = tested on: NCI-H522 lung
NCI/ADR-RES ovarian = tested on: NCI/ADR-RES ovarian
SK-OV-3 ovarian = tested on: SK-OV-3 ovarian
UO-31 renal = tested on: UO-31 renal
U251 glioblastoma = tested on: U251 glioblastoma
COLO 205 colon = tested on: COLO 205 colon
MDA-MB-468 breast = tested on: MDA-MB-468 breast
HOP-62 NSCLC = tested on: HOP-62 NSCLC
A549 NSCLC = tested on: A549 NSCLC
OVCAR-8 ovarian = tested on: OVCAR-8 ovarian
MCF7 breast = tested on: MCF7 breast
SK-MEL-5 melanoma = tested on: SK-MEL-5 melanoma
UACC-62 melanoma = tested on: UACC-62 melanoma
NCI-H322M lung = tested on: NCI-H322M lung
NCI-H23 lung = tested on: NCI-H23 lung
OVCAR-4 ovarian = tested on: OVCAR-4 ovarian
SR leukemia = tested on: SR leukemia
PC-3 prostate = tested on: PC-3 prostate
KM12 colon = tested on: KM12 colon
UACC-257 melanoma = tested on: UACC-257 melanoma
HCT-15 colon = tested on: HCT-15 colon
SF-295 CNS = tested on: SF-295 CNS
ACHN renal = tested on: ACHN renal
M14 melanoma = tested on: M14 melanoma
SNB-19 CNS = tested on: SNB-19 CNS
SF-539 CNS = tested on: SF-539 CNS
HCC-2998 colon = tested on: HCC-2998 colon
MALME-3M melanoma = tested on: MALME-3M melanoma

SMILES: CCOc1cc(C(C)(C)C)ccc1C1=N[C@@](C)(c2ccc(Cl)cc2)[C@@](C)(c2ccc(Cl)cc2)N1C(=O)N1CCN(CCCS(C)(=O)=O)CC1
- GI50 (OVCAR-5 ovarian): 3520 nM
- TGI (OVCAR-5 ovarian): 10800 nM
- GI50 (SN12C renal): 2400 nM
- TGI (SN12C renal): 5210 nM
- GI50 (A498 renal): 185 nM
- TGI (A498 renal): 1370 nM
- GI50 (RXF 393 renal): 2230 nM
- TGI (RXF 393 renal): 4550 nM
- GI50 (LOX IMVI melanoma): 892 nM
- TGI (LOX IMVI melanoma): 2120 nM
- GI50 (MDA-MB-435 melanoma): 3940 nM
- TGI (MDA-MB-435 melanoma): 11700 nM
- GI50 (OVCAR-3 ovarian): 2110 nM
- TGI (OVCAR-3 ovarian): 3760 nM
- GI50 (K-562 leukemia): 2940 nM
- TGI (K-562 leukemia): 8630 nM
- GI50 (NCI-H460 NSCLC): 224 nM
- TGI (NCI-H460 NSCLC): 1300 nM
- GI50 (HCT-116 colon): 327 nM
- TGI (HCT-116 colon): 1610 nM
- GI50 (HOP-92 NSCLC): 2240 nM
- TGI (HOP-92 NSCLC): 4680 nM
- GI50 (BT-549 breast): 2350 nM
- TGI (BT-549 breast): 5590 nM
- GI50 ([…]-0 renal): 2510 nM
- TGI (786-0 renal): 7150 nM
- GI50 (MDA-MB-231 breast): 2660 nM
- TGI (MDA-MB-231 breast): 6530 nM
- GI50 (NCI-H226 lung): 108 nM
- TGI (NCI-H226 lung): 359 nM
- GI50 (MOLT-4 leukemia): 29.6 nM
- TGI (MOLT-4 leukemia): 97.5 nM
- GI50 (RPMI-8226 leukemia): 1820 nM
- TGI (RPMI-8226 leukemia): 3220 nM
- GI50 (SK-MEL-2 melanoma): 2260 nM
- TGI (SK-MEL-2 melanoma): 4190 nM
- GI50 (SF-268 CNS): 2650 nM
- TGI (SF-268 CNS): 7380 nM
- GI50 (DU-145 prostate): 3160 nM
- TGI (DU-145 prostate): 10100 nM
- GI50 (SW-620 colon): 4240 nM
- TGI (SW-620 colon): 13200 nM
- GI50 (CAKI-1 renal): 122 nM
- TGI (CAKI-1 renal): 1470 nM
- GI50 (SK-MEL-28 melanoma): 3860 nM
- TGI (SK-MEL-28 melanoma): 10900 nM
- GI50 (IGROV1 ovarian): 1410 nM
- TGI (IGROV1 ovarian): 3320 nM
- GI50 (HL-60(TB) leukemia): 2560 nM
- TGI (HL-60(TB) leukemia): 4040 nM
- GI50 (HT29 colon): 1870 nM
- TGI (HT29 colon): 3290 nM
- GI50 (TK-10 renal): 2830 nM
- TGI (TK-10 renal): 8930 nM
- GI50 (CCRF-CEM leukemia): 2120 nM
- TGI (CCRF-CEM leukemia): 3700 nM
- GI50 (T-47D breast): 2440 nM
- TGI (T-47D breast): 8590 nM
- GI50 (NCI-H522 lung): 3250 nM
- TGI (NCI-H522 lung): 8970 nM
- GI50 (NCI/ADR-RES ovarian): 2370 nM
- TGI (NCI/ADR-RES ovarian): 6070 nM
- GI50 (SK-OV-3 ovarian): 2600 nM
- TGI (SK-OV-3 ovarian): 7360 nM
- GI50 (UO-31 renal): 53.4 nM
- TGI (UO-31 renal): 205 nM
- GI50 (U251 glioblastoma): 3710 nM
- TGI (U251 glioblastoma): 11900 nM
- GI50 (COLO 205 colon): 3540 nM
- TGI (COLO 205 colon): 9600 nM
- GI50 (MDA-MB-468 breast): 2040 nM
- TGI (MDA-MB-468 breast): 5160 nM
- GI50 (HOP-62 NSCLC): 2480 nM
- TGI (HOP-62 NSCLC): 6590 nM
- GI50 (A549 NSCLC): 405 nM
- TGI (A549 NSCLC): 1630 nM
- GI50 (OVCAR-8 ovarian): 3560 nM
- TGI (OVCAR-8 ovarian): 12600 nM
- GI50 (MCF7 breast): 411 nM
- TGI (MCF7 breast): 1940 nM
- GI50 (SK-MEL-5 melanoma): 1390 nM
- TGI (SK-MEL-5 melanoma): 2690 nM
- GI50 (UACC-62 melanoma): 67.8 nM
- TGI (UACC-62 melanoma): 1590 nM
- GI50 (NCI-H322M lung): 2280 nM
- TGI (NCI-H322M lung): 3960 nM
- GI50 (NCI-H23 lung): 5590 nM
- TGI (NCI-H23 lung): 16400 nM
- GI50 (OVCAR-4 ovarian): 2530 nM
- TGI (OVCAR-4 ovarian): 5890 nM
- GI50 (SR leukemia): 20 nM
- TGI (SR leukemia): 56.9 nM
- GI50 (PC-3 prostate): 2150 nM
- TGI (PC-3 prostate): 4430 nM
- GI50 (KM12 colon): 2230 nM
- TGI (KM12 colon): 4770 nM
- GI50 (UACC-257 melanoma): 1440 nM
- TGI (UACC-257 melanoma): 3140 nM
- GI50 (HCT-15 colon): 1900 nM
- TGI (HCT-15 colon): 3490 nM
- GI50 (SF-295 CNS): 1930 nM
- TGI (SF-295 CNS): 3850 nM
- GI50 (ACHN renal): 205 nM
- TGI (ACHN renal): 1210 nM
- GI50 (M14 melanoma): 1070 nM
- TGI (M14 melanoma): 3240 nM
- GI50 (SNB-19 CNS): 3180 nM
- TGI (SNB-19 CNS): 11300 nM
- GI50 (SF-539 CNS): 2030 nM
- TGI (SF-539 CNS): 4250 nM
- GI50 (HCC-2998 colon): 1470 nM
- TGI (HCC-2998 colon): 2960 nM
- GI50 (MALME-3M melanoma): 753 nM
- TGI (MALME-3M melanoma): 2620 nM
